# Assay results: US9162010B2, “Drug eluting cochlear implants” (Tepha, Inc., priority 2010, dated 2015)
# Assays:
# spiral ganglion cells = assay: Spiral ganglion cell survival by anti-neurofilament antibody staining and microscopic counting; type: cell-based, Sprague-Dawley rats; conditions: for impact on viability of SGC: concentrations between 10^-12 and 10^-6 mol/L; for viability (survival) of spiral ganglion cells at high concentration: concentration of 10^-5 mol/L (FIG. 3)
# Description: Spiral ganglion cells were freshly isolated from Sprague-Dawley rats (p3-5). Viable cells were suspended in Dulbecco's Modified Eagle's Medium supplemented with 10% fetal calf serum and 50 ng/ml BDNF and were seeded onto laminin- and ornithin-coated cell culture plates at a density of 1.5×10^4 cells/well. After a cultivation time of 48 hours, cells were stained with anti-neurofilament antibody and counted under a microscope. All experiments were performed in quadruplicate and the experiment was repeated four times.
# (§1) Discs (0.1 mm thick and 6 mm in diameter) of poly(L-lactide) (PLLA, Resomer L214, Boehringer Ingelheim Pharma GmbH & Co. KG, Ingelheim, Germany), poly(4-hydroxybutyrate) (P(4HB), Tepha, Inc., Lexington, Mass., USA) and silicone were placed at the bottom of standard 96-well tissue culture plates. Microtiter plates without material additions served as controls. Cells were seeded into each of the different cell culture wells and the assays were carried out as described above in Examples 1 and 2. For absorption measurements when using NIH-3T3 cells and neutral red test, the supernatant of all wells was transferred into new wells after permeabilization of the cells. Surviving spiral ganglion cells were stained directly on the polymer discs and counted.
# NIH-3T3 fibroblasts = assay: Neutral Red assay of NIH-3T3 fibroblast viability; type: cell-based; conditions: for impact on viability of NIH-3T3 cells: concentrations between 10^-12 and 10^-6 mol/L; for effect on NIH-3T3 cell viability: drug at concentrations between 10^-12 and 10^-4 mol/L, relative to control (no drug), 48 hours
# Description: Cell survival and viability of NIH-3T3 fibroblasts were measured using a Neutral Red Assay. NIH-3T3 fibroblasts were seeded into 96-well cell culture plates at a density of 10^4 cells/well in Dulbecco's Modified Eagle's Medium supplemented with 10% fetal calf serum. After 48 hours, cells were stained using a Neutral Red Assay. Neutral red is taken up only by living cells.
# After incubation for 3 hours and several washing steps, cells were permeabilized and the neutral red solubilized in the supernatant. The absorption measured at 570 nm is proportional to the number of living cells. Measurements were run in quintuplicate and results were averaged. The experiment was repeated at least four times.
# as §1
# The NIH-3T3 fibroblasts were cultured and assayed with Neutral Red according to Example 1, except that dexamethasone or sirolimus were added to the cell culture at concentrations between 10^−12 and 10^−4 mol/L. The percentage of viable NIH-3T3 cells was assayed relative to the control (no drug) and the results are shown in FIGS. 2 (dexamethasone) and 3 (sirolimus).
SMILES,increase of spiral ganglion cell viability (spiral ganglion cells; concentrations between 10^-11 to 10^-7 mol/L (FIG. 2)) [%],impact on viability of SGC (spiral ganglion cells),"effect on spiral ganglion cell viability (spiral ganglion cells; drug at concentrations between 10^-12 and 10^-4 mol/L, relative to control (no drug), 48 hours)",impact on viability of NIH-3T3 cells (NIH-3T3 fibroblasts),effect on NIH-3T3 cell viability (NIH-3T3 fibroblasts),viability (survival) of spiral ganglion cells at high concentration (spiral ganglion cells),viability (survival) of spiral ganglion cells at high concentration (spiral ganglion cells; listed as Sirolimus)
C[C@@H]1C[C@H]2[C@@H]3CCC4=CC(=O)C=C[C@]4(C)[C@@]3(F)[C@@H](O)C[C@]2(C)[C@@]1(O)C(=O)CO [dexamethasone],~20,do not have an adverse impact,no toxic effects,do not have an adverse impact,no toxic effects,,
CO[C@H]1C[C@@H]2CC[C@@H](C)[C@@](O)(O2)C(=O)C(=O)N2CCCC[C@H]2C(=O)O[C@H]([C@H](C)C[C@@H]2CC[C@@H](O)[C@H](OC)C2)CC(=O)[C@H](C)/C=C(\C)[C@@H](O)[C@@H](OC)C(=O)[C@H](C)C[C@H](C)/C=C/C=C/C=C/1C [sirolimus],,do not have an adverse impact,,do not have an adverse impact,only a small decrease,reduced,substantially reduced
